In publication PMC8310135 (Viruses, 2021) one finds viability, activity and CC50 data, which are given here for 27 compounds.

Counter-ions that a name gives are not always drawn.

One data set in a line: in vitro. To be noted: human.
Another data set concerns rLUJV/ZsG. Nature of the data set: microbe, parasite or virus in culture. Type of data set: cell-based, Lujo virus. The note with it: Mammarenavirus lujoense, Huh-7, read-out: Relative ZsG (%) Mean; for activity at 0.05 µM: 50 nM; for activity at 0.5 µM: 500 nM; for activity at 5 µM: 5000 nM.

Regarding `COc1c(-c2ccc3cc(NS(C)(=O)=O)ccc3c2)cc(-n2ccc(=O)[nH]c2=O)cc1C(C)(C)C` [ABT-333], in the data set “in vitro”, the viability at 0.05 µM is 99%, the viability at 0.5 µM was 96% and the viability at 5 µM was found to be 104%. Also, in the data set on rLUJV/ZsG, the activity at 0.05 µM was 131%, the activity at 0.5 µM was 111% and the activity at 5 µM was 129%.

Turning to `C[C@@]1(O)[C@H](O)[C@@H](CO)O[C@H]1n1ccc(N)nc1=O` [2ʹ-C-methylcytidine], in the data set “in vitro”, the viability at 0.05 µM was 102%, the viability at 0.5 µM came out at 104% and the viability at 5 µM was 99%. In the data set on rLUJV/ZsG, the activity at 0.05 µM came to 124%, the activity at 0.5 µM worked out at 144% and the activity at 5 µM came out at 103%.

On to `O=c1[nH]c(=O)n([C@@H]2O[C@H](CO)[C@@H](O)[C@H]2O)cc1Cl` [5-chlorouridine], for which, in the data set “in vitro”, the viability at 0.05 µM was 100%, the viability at 0.5 µM turned out to be 103% and the viability at 5 µM came to 99%. Moreover, in the data set with rLUJV/ZsG, the activity at 0.05 µM amounted to 122%, the activity at 0.5 µM worked out at 142% and the activity at 5 µM stood at 103%.

With `O=c1[nH]c(=O)n([C@@H]2O[C@H](CO)[C@@H](O)[C@H]2O)cc1F` [5-fluorouridine], in the data set “in vitro”, the viability at 0.05 µM was determined as 97%, the viability at 0.5 µM was 100% and the viability at 5 µM was 103%. Moreover, in the data set with rLUJV/ZsG, the activity at 0.05 µM was found to be 94%, the activity at 0.5 µM was 51% and the activity at 5 µM was 19%.

For the compound `[N-]=[N+]=Nc1nc2c(N)ncnc2n1[C@@H]1O[C@H](CO)[C@@H](O)[C@H]1O` [8-azidoadenosine], in the data set “in vitro”, the viability at 0.05 µM is 104%, the viability at 0.5 µM amounted to 87% and the viability at 5 µM came out at 32%. Besides, in the data set with rLUJV/ZsG, the activity at 0.05 µM worked out at 90%, the activity at 0.5 µM came to 72% and the activity at 5 µM came out at 6%.

`COc1cc2ncnc(Nc3ccc(F)c(Cl)c3)c2cc1OCCCN1CCOCC1` [Gefitinib]: in “in vitro”, the viability at 0.05 µM worked out at 128%, the viability at 0.5 µM is 121% and the viability at 5 µM was 101%. In the data set on rLUJV/ZsG, the activity at 0.05 µM is 77%, the activity at 0.5 µM turned out to be 71% and the activity at 5 µM is 48%.

On to `COc1ccc2cc1Oc1ccc(cc1)C[C@H]1c3cc(c(OC)cc3CCN1C)Oc1c(OC)c(OC)cc3c1[C@H](C2)N(C)CC3` [Tetrandrine], for which, in the data set “in vitro”, the viability at 0.05 µM was determined as 115%, the viability at 0.5 µM came out at 95% and the viability at 5 µM is 1%. In addition, in the data set with rLUJV/ZsG, the activity at 0.05 µM came out at 95%, the activity at 0.5 µM amounted to 75% and the activity at 5 µM came out at 2%.

For `O=c1cnn([C@@H]2O[C@H](CO)[C@@H](O)[C@H]2O)c(=O)[nH]1` [6-azauridine], in the data set “in vitro”, the viability at 0.05 µM worked out at 98%, the viability at 0.5 µM came to 103% and the viability at 5 µM was 97%. For the same compound, in the data set with rLUJV/ZsG, the activity at 0.05 µM worked out at 95%, the activity at 0.5 µM came to 87% and the activity at 5 µM was determined as 78%.

As to `CC(C)/N=c1\cc2n(-c3ccc(Cl)cc3)c3ccccc3nc-2cc1Nc1ccc(Cl)cc1` [Clofazimine], in “in vitro”, the viability at 0.05 µM was 120%, the viability at 0.5 µM was found to be 125% and the viability at 5 µM amounted to 102%. Besides, in the data set with rLUJV/ZsG, the activity at 0.05 µM was 88%, the activity at 0.5 µM is 75% and the activity at 5 µM was determined as 52%.

For `COc1ccc(-c2ccc3c(N4CCOC[C@@H]4C)nc(N4CCOC[C@@H]4C)nc3n2)cc1CO` [AZD8055], in “in vitro”, the viability at 0.05 µM came to 86%, the viability at 0.5 µM came out at 52% and the viability at 5 µM came out at 45%. In the data set on rLUJV/ZsG, the activity at 0.05 µM was 48%, the activity at 0.5 µM was 7% and the activity at 5 µM was determined as 3%.

As to `CC(C)(C)c1nc(-c2cccc(NS(=O)(=O)c3c(F)cccc3F)c2F)c(-c2ccnc(N)n2)s1` [Dabrafenib], in “in vitro”, the viability at 0.05 µM stood at 119%, the viability at 0.5 µM was found to be 117% and the viability at 5 µM was determined as 68%. Further, in the data set with rLUJV/ZsG, the activity at 0.05 µM stood at 87%, the activity at 0.5 µM was 79% and the activity at 5 µM stood at 22%.

As to `N#Cc1cn([C@@H]2O[C@H](CO)[C@@H](O)[C@H]2O)c2ncnc(N)c12` [Toyocamycin], in “in vitro”, the viability at 0.05 µM stood at 97%, the viability at 0.5 µM came to 64% and the viability at 5 µM was 23%. In the data set on rLUJV/ZsG, the activity at 0.05 µM turned out to be 69%, the activity at 0.5 µM was found to be 12% and the activity at 5 µM was 7%.

On to `N#CC1(c2ccc(NC(=O)c3cccnc3NCc3ccncc3)cc2)CCCC1` [Apatinib], for which, in “in vitro”, the viability at 0.05 µM was determined as 113%, the viability at 0.5 µM is 119% and the viability at 5 µM was 95%. In the data set on rLUJV/ZsG, the activity at 0.05 µM worked out at 91%, the activity at 0.5 µM is 67% and the activity at 5 µM was 47%.

Regarding `Clc1ccc(CSC(Cn2ccnc2)c2ccc(Cl)cc2Cl)cc1` (stereo not shown) [Sulconazole nitrate], in the data set “in vitro”, the viability at 0.05 µM stood at 132%, the viability at 0.5 µM turned out to be 131% and the viability at 5 µM was found to be 52%. Besides, in the data set on rLUJV/ZsG, the activity at 0.05 µM worked out at 86%, the activity at 0.5 µM amounted to 66% and the activity at 5 µM came out at 42%.

The compound `CCCCc1oc2ccccc2c1C(=O)c1cc(I)c(OCCN(CC)CC)c(I)c1` [Amiodarone] came in with a CC50 in “in vitro” (CC50 (50% cell cytotoxicity concentration)) of 13.6 ± 1.51 µM. Moreover, in the data set with rLUJV/ZsG, the activity at 0.05 µM worked out at 80%, the activity at 0.5 µM came to 60% and the activity at 5 µM was determined as 3%.

Regarding `O=C1C=CN([C@@H]2O[C@H](CO)[C@@H](O)[C@H]2O)C(=O)C1` [3-deazauridine], in the data set “in vitro”, the viability at 0.05 µM came to 103%, the viability at 0.5 µM turned out to be 96% and the viability at 5 µM was 99%. In addition, in the data set on rLUJV/ZsG, the activity at 0.05 µM was 108%, the activity at 0.5 µM was 105% and the activity at 5 µM is 111%.

Regarding `O=c1c(-c2ccc(O)cc2)coc2cc(O)cc(O)c12` [Genistein], in the data set “in vitro”, the viability at 0.05 µM came to 123%, the viability at 0.5 µM worked out at 111% and the viability at 5 µM amounted to 106%. Besides, in the data set on rLUJV/ZsG, the activity at 0.05 µM worked out at 83%, the activity at 0.5 µM is 68% and the activity at 5 µM turned out to be 92%.

In the case of `CCOC(=O)c1c(CSc2ccccc2)n(C)c2cc(Br)c(O)c(CN(C)C)c12` [Arbidol], in the data set “in vitro”, the viability at 0.05 µM was 135%, the viability at 0.5 µM came out at 139% and the viability at 5 µM amounted to 109%. Moreover, in the data set on rLUJV/ZsG, the activity at 0.05 µM was 77%, the activity at 0.5 µM turned out to be 65% and the activity at 5 µM is 40%.

As to `CN(C)CCCN1c2ccccc2CCc2ccc(Cl)cc21` [Clomipramine HCL], in the data set “in vitro”, the viability at 0.05 µM worked out at 97%, the viability at 0.5 µM stood at 97% and the viability at 5 µM was 98%. Besides, in the data set on rLUJV/ZsG, the activity at 0.05 µM came to 129%, the activity at 0.5 µM was determined as 103% and the activity at 5 µM was 12%.

On to `Cc1c(F)cc(C(=O)NC2CC2)cc1-c1ccc(C(=O)NCC(C)(C)C)cn1` [Losmapimod], for which, in the data set “in vitro”, the viability at 0.05 µM was 113%, the viability at 0.5 µM was 115% and the viability at 5 µM stood at 114%. In the data set on rLUJV/ZsG, the activity at 0.05 µM was 60%, the activity at 0.5 µM came to 70% and the activity at 5 µM was determined as 63%.

Regarding `O=c1[nH]c(=O)n([C@@H]2O[C@H](CO)[C@@H](O)[C@H]2O)cc1Br` [5-bromouridine], in the data set “in vitro”, the viability at 0.05 µM is 97%, the viability at 0.5 µM was determined as 102% and the viability at 5 µM is 100%. In addition, in the data set on rLUJV/ZsG, the activity at 0.05 µM came to 134%, the activity at 0.5 µM turned out to be 131% and the activity at 5 µM turned out to be 106%.

`CC(C)(C)C(=O)OCOP(=O)(COCCn1cnc2c(N)ncnc21)OCOC(=O)C(C)(C)C` [Adefovir dipivoxil]: in “in vitro”, the viability at 0.05 µM turned out to be 123%, the viability at 0.5 µM worked out at 94% and the viability at 5 µM came out at 54%. Moreover, in the data set on rLUJV/ZsG, the activity at 0.05 µM came to 70%, the activity at 0.5 µM is 38% and the activity at 5 µM came out at 24%.

With `CN1CCC[C@@H]1CCO[C@](C)(c1ccccc1)c1ccc(Cl)cc1` [Clemastine fumarate], in the data set “in vitro”, the viability at 0.05 µM was 115%, the viability at 0.5 µM stood at 116% and the viability at 5 µM was found to be 107%. Further, in the data set with rLUJV/ZsG, the activity at 0.05 µM came out at 95%, the activity at 0.5 µM turned out to be 81% and the activity at 5 µM is 6%.

Take `CN[C@H]1CC[C@@H](c2ccc(Cl)c(Cl)c2)c2ccccc21` [Sertraline]: in “in vitro”, the viability at 0.05 µM was found to be 122%, the viability at 0.5 µM came out at 128% and the viability at 5 µM was determined as 107%. Further, in the data set on rLUJV/ZsG, the activity at 0.05 µM was 80%, the activity at 0.5 µM was 69% and the activity at 5 µM came to 35%.

`CC(C)C(=O)OC[C@@]1(N=[N+]=[N-])O[C@@H](n2ccc(N)nc2=O)[C@H](OC(=O)C(C)C)[C@@H]1OC(=O)C(C)C` [Balapiravir (R1626), Balapiravir]: in “in vitro”, the viability at 0.05 µM worked out at 104%, the viability at 0.5 µM was determined as 104% and the viability at 5 µM is 99%. Moreover, in the data set on rLUJV/ZsG, the activity at 0.05 µM worked out at 139%, the activity at 0.5 µM is 81% and the activity at 5 µM was determined as 122%.

Regarding `CO[C@@H]1[C@H](O)[C@@H](CO)O[C@H]1n1ccc(N)nc1=O` [2ʹ-O-methylcytidine], in “in vitro”, the viability at 0.05 µM came out at 98%, the viability at 0.5 µM turned out to be 103% and the viability at 5 µM amounted to 100%. Moreover, in the data set with rLUJV/ZsG, the activity at 0.05 µM stood at 118%, the activity at 0.5 µM is 127% and the activity at 5 µM turned out to be 114%.

Take `Nc1ncnc2c([C@@H]3N[C@H](CO)[C@@H](O)[C@H]3O)c[nH]c12` [BCX-4430]: in the data set “in vitro”, the viability at 0.05 µM amounted to 99%, the viability at 0.5 µM is 97% and the viability at 5 µM came out at 101%. In the data set on rLUJV/ZsG, the activity at 0.05 µM came to 103%, the activity at 0.5 µM stood at 132% and the activity at 5 µM stood at 99%.
